{"source": "patent US20160000071A1", "about": "“PHOTODEGRADABLE, BIOCOMPATIBLE AND EFFICIENT NANO-ENCAPSULATED FORMULATION” (priority 2014, published 2016)", "key": {"[1]": {"tested_on": "newly ecdysed fifth instar larvae of G. pyloalis", "experiment": "Topical bioassay", "assay_type": "in vivo, Glyphodes pyloalis Walker", "details": "Glyphodes pyloalis", "procedure": "(§1) The insects used in the present application is Glyphodes pyloalis Walker (Lepidoptera: Pyralidae) which was collected from infested mulberry orchards in the vicinity of Rasht, Iran. Mass rearing of insects was carried out in the laboratory under controlled conditions at 25±1° C., 70±5% RH and 16:8 L:D. Newly-ecdysed fifth instar larvae of G. pyloalis were used for the bioassay experiments. The Glyphodes pyloalis Walker hereinafter is referred to as G. pyloalis.\nTo determine the efficacy of the encapsulated nano-IMI prepared using ethanol, a topical bioassay was performed. In the preliminary tests, 5 concentrations of bulk and nano-IMI were tested. […] Fifty larvae per concentration were used for all experiments and each experiment was replicated 4 times; 1 μl of the desired concentration was topically applied to the metathoracic tergum. The controls received 1 μl of ethanol in the same way. The treated larvae were allowed to eat fresh leaves. After 24, 48, 72 and 96 h, the numbers of dead larvae were recorded."}, "[2]": {"tested_on": "newly-ecdysed fifth instar larvae of G. pyloalis", "experiment": "Leaf dip bioassay", "assay_type": "in vivo, Glyphodes pyloalis Walker", "details": "Glyphodes pyloalis, foliar", "procedure": "as §1\nThe toxicity of the encapsulated imidacloprid diluted in water for the newly-ecdysed fifth instar larvae of G. pyloalis was evaluated using leaf dip bioassay. The technical imidacloprid was dissolved in acetone and diluted to generate 6 serial dilutions with distilled water. Mulberry leaf discs with diameters of 3.5 cm were prepared, so that each petiole was placed in a vial containing water for providing moisture to the leaf discs for several days. These discs were then immersed in the dilutions for 45 seconds. Mortality was assessed after the treated larvae were maintained at 25±1° C., 70±10 R.H. for 24, 48, 72, 96 and 120 hours."}}, "data": [{"molecule": "O=[N+]([O-])NC1=NCCN1Cc1ccc(Cl)nc1", "note": "[Imidacloprid]", "values": [{"measurement": "mortality at 22 ppm", "setting": "[1]; 24 h after treatment", "value": 18.1, "unit": "%"}, {"measurement": "mortality at 22 ppm", "setting": "[1]; 48 h after treatment", "value": 20, "unit": "%"}, {"measurement": "mortality at 22 ppm", "setting": "[1]; 72 h after treatment", "value": 22, "unit": "%"}, {"measurement": "mortality at 22 ppm", "setting": "[1]; 96 h after treatment", "value": 24, "unit": "%"}, {"measurement": "mortality at 32 ppm", "setting": "[1]; 24 h after treatment", "value": 33, "unit": "%"}, {"measurement": "mortality at 32 ppm", "setting": "[1]; 48 h after treatment", "value": 35, "unit": "%"}, {"measurement": "mortality at 32 ppm", "setting": "[1]; 72 h after treatment", "value": 36.5, "unit": "%"}, {"measurement": "mortality at 32 ppm", "setting": "[1]; 96 h after treatment", "value": 38.2, "unit": "%"}, {"measurement": "mortality at 47.5 ppm", "setting": "[1]; 24 h after treatment", "value": 50, "unit": "%"}, {"measurement": "mortality at 47.5 ppm", "setting": "[1]; 48 h after treatment", "value": 52.1, "unit": "%"}, {"measurement": "mortality at 47.5 ppm", "setting": "[1]; 72 h after treatment", "value": 54, "unit": "%"}, {"measurement": "mortality at 47.5 ppm", "setting": "[1]; 96 h after treatment", "value": 56, "unit": "%"}, {"measurement": "mortality at 60 ppm", "setting": "[1]; 24 h after treatment", "value": 76, "unit": "%"}, {"measurement": "mortality at 60 ppm", "setting": "[1]; 48 h after treatment", "value": 78, "unit": "%"}, {"measurement": "mortality at 60 ppm", "setting": "[1]; 72 h after treatment", "value": 80.4, "unit": "%"}, {"measurement": "mortality at 60 ppm", "setting": "[1]; 96 h after treatment", "value": 82, "unit": "%"}, {"measurement": "mortality at 50 ppm", "setting": "[2]; 24 h after treatment", "value": "2.5 ± 2", "unit": "%"}, {"measurement": "mortality at 50 ppm", "setting": "[2]; 48 h after treatment", "value": 15.6, "unit": "%"}, {"measurement": "mortality at 50 ppm", "setting": "[2]; 72 h after treatment", "value": 27, "unit": "%"}, {"measurement": "mortality at 50 ppm", "setting": "[2]; 96 h after treatment", "value": 42.5, "unit": "%"}, {"measurement": "mortality at 50 ppm", "setting": "[2]; 120 h after treatment", "value": "46.2 ± 2.39", "unit": "%"}, {"measurement": "mortality at 80 ppm", "setting": "[2]; 24 h after treatment", "value": 8.82, "unit": "%"}, {"measurement": "mortality at 80 ppm", "setting": "[2]; 48 h after treatment", "value": 23.8, "unit": "%"}, {"measurement": "mortality at 80 ppm", "setting": "[2]; 72 h after treatment", "value": "39.6 ± 3.33", "unit": "%"}, {"measurement": "mortality at 80 ppm", "setting": "[2]; 96 h after treatment", "value": "57.8 ± 3.17", "unit": "%"}, {"measurement": "mortality at 80 ppm", "setting": "[2]; 120 h after treatment", "value": "58.8 ± 3.75", "unit": "%"}, {"measurement": "mortality at 126 ppm", "setting": "[2]; 24 h after treatment", "value": "21.9 ± 3.07", "unit": "%"}, {"measurement": "mortality at 126 ppm", "setting": "[2]; 48 h after treatment", "value": "43.8 ± 2.39", "unit": "%"}, {"measurement": "mortality at 126 ppm", "setting": "[2]; 72 h after treatment", "value": "58.6 ± 3.41", "unit": "%"}, {"measurement": "mortality at 126 ppm", "setting": "[2]; 96 h after treatment", "value": "76.2 ± 3.17", "unit": "%"}, {"measurement": "mortality at 126 ppm", "setting": "[2]; 120 h after treatment", "value": "78.8 ± 3.75", "unit": "%"}, {"measurement": "mortality at 200 ppm", "setting": "[2]; 24 h after treatment", "value": "34.2 ± 2.09", "unit": "%"}, {"measurement": "mortality at 200 ppm", "setting": "[2]; 48 h after treatment", "value": 55, "unit": "%"}, {"measurement": "mortality at 200 ppm", "setting": "[2]; 72 h after treatment", "value": "71.7 ± 2.04", "unit": "%"}, {"measurement": "mortality at 200 ppm", "setting": "[2]; 96 h after treatment", "value": "78.8 ± 2.39", "unit": "%"}, {"measurement": "mortality at 200 ppm", "setting": "[2]; 120 h after treatment", "value": 80, "unit": "%"}, {"measurement": "mortality at 316 ppm", "setting": "[2]; 24 h after treatment", "value": "39.2 ± 4.13", "unit": "%"}, {"measurement": "mortality at 316 ppm", "setting": "[2]; 48 h after treatment", "value": 60, "unit": "%"}, {"measurement": "mortality at 316 ppm", "setting": "[2]; 72 h after treatment", "value": 75, "unit": "%"}, {"measurement": "mortality at 316 ppm", "setting": "[2]; 96 h after treatment", "value": "84.2 ± 3.37", "unit": "%"}, {"measurement": "mortality at 316 ppm", "setting": "[2]; 120 h after treatment", "value": "86.2 ± 2.39", "unit": "%"}, {"measurement": "mortality at 500 ppm", "setting": "[2]; 24 h after treatment", "value": "57.5 ± 2.04", "unit": "%"}, {"measurement": "mortality at 500 ppm", "setting": "[2]; 48 h after treatment", "value": "77.6 ± 4", "unit": "%"}, {"measurement": "mortality at 500 ppm", "setting": "[2]; 72 h after treatment", "value": "86.1 ± 1.63", "unit": "%"}, {"measurement": "mortality at 500 ppm", "setting": "[2]; 96 h after treatment", "value": 100, "unit": "%"}, {"measurement": "mortality at 500 ppm", "setting": "[2]; 120 h after treatment", "value": 100, "unit": "%"}]}]}
